From US20170291890A1 (Epizyme, Inc., priority 2014, published 2017)

molecular target: T1, KDM5A (Homo sapiens, UniProt P29375); assay: KDM5A Assay (SAMDI mass spectrometry demethylase assay); assay type: biochemical; conditions: C-terminal FLAG-tagged KDM5A 1-1090; class symbols; read-out: 5A IC50
T1 construct: C-terminal FLAG-tagged KDM5A^1-1090 was purchased from BPS Biosciences; FLAG (C); purchased BPS Biosciences
T1 sequence (P29375 1-1090): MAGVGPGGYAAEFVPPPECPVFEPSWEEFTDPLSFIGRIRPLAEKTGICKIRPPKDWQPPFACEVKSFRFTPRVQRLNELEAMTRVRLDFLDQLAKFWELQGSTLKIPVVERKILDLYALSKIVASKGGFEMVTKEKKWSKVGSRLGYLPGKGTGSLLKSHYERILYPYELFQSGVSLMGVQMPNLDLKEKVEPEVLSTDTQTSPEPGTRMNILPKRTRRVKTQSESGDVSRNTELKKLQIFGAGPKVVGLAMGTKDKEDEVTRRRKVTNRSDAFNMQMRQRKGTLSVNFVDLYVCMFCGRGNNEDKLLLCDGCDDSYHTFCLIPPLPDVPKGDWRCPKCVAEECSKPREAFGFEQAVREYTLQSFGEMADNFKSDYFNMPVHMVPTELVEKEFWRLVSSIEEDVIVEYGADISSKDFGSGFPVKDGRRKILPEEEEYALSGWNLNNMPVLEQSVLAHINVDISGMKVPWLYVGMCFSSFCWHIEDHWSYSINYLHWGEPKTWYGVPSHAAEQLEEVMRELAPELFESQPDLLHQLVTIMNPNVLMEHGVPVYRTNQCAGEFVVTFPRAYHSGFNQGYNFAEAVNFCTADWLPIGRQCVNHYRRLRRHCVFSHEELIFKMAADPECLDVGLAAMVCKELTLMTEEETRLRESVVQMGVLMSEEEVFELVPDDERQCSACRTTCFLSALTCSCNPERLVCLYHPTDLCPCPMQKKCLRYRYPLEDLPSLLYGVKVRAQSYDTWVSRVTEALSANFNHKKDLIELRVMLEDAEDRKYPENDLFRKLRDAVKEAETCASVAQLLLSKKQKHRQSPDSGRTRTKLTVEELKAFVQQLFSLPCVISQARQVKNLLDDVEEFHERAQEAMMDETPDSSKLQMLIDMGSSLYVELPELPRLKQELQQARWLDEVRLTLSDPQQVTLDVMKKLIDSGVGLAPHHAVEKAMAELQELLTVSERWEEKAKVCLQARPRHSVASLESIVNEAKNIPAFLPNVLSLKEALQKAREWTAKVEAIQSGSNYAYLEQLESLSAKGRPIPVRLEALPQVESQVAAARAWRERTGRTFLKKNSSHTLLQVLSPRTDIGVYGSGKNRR
In short: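 FLAG-tagged KDM5A 1-1090 (20 nM) preincubated 30 min with compound in pH 8.0 HEPES buffer with ascorbate, Fe(II), TCEP, then reacted 150 min at 25 °C with H3K4me3 peptide (250 nM) and 2-oxoglutarate (15 μM). Formic acid-quenched; SAMDI-MS substrate/product AUC conversion; IC50 from dose-response.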

SMILES	IC50
O=C(O)c1ccncc1Nc1cc(-c2cccc(Cl)c2)n(C2CCC3(CC2)OCCO3)n1 [Compound 86, 3-((5-(3-chlorophenyl)-1-(1,4-dioxaspiro[4.5]decan-8-yl)-1H-pyrazol-3-yl)amino)isonicotinic acid]	1 to 10 µM
Cc1c(Nc2cnccc2C(=O)O)cnn1C1CCN(CC2CC2)CC1 [Compound 90, 3-(1-(1-(cyclopropylmethyl)piperidin-4-yl)-5-methyl-1H-pyrazol-4-ylamino) isonicotinic acid]	1 to 10 µM
Cc1c(Nc2cnccc2C(=O)O)cnn1C1CCN(C2CN(C)C2)CC1 [Compound 92, 3-(5-methyl-1-(1-(1-methylazetidin-3-yl)piperidin-4-yl)-1H-pyrazol-4-ylamino)isonicotinic acid]	1 to 10 µM
NC1CCC(n2nc(-c3cccc(Cl)c3)cc2Nc2cnccc2C(=O)O)CC1 (centres unmarked) [Compound 85, 3-((1-(4-aminocyclohexyl)-3-(3-chlorophenyl)-1H-pyrazol-5-yl)amino)isonicotinic acid]	1 to 10 µM
NC1CCC(n2nc(Nc3cnccc3C(=O)O)cc2-c2cccc(Cl)c2)CC1 (centres unmarked) [Compound 87, 3-((1-(4-aminocyclohexyl)-5-(3-chlorophenyl)-1H-pyrazol-3-yl)amino)isonicotinic acid]	1 to 10 µM
CN1CCC(n2ncc(Nc3cnccc3C(=O)O)c2-c2ccccc2)CC1 [Compound 126, 3-(1-(1-methylpiperidin-4-yl)-5-phenyl-1H-pyrazol-4-ylamino) isonicotinic acid]	1 to 10 µM
COC(=O)c1ccncc1Nc1cn(C2CCN(C3CCC3)CC2)nc1C [Compound 93, methyl 3-((1-(1-cyclobutylpiperidin-4-yl)-3-methyl-1H-pyrazol-4-yl)amino)isonicotinate]	10 to 100 µM
COC(=O)c1ccncc1Nc1cnn(C2CCN(C3CCC3)CC2)c1C [Compound 95, methyl 3-((1-(1-cyclobutylpiperidin-4-yl)-5-methyl-1H-pyrazol-4-yl)amino)isonicotinate]	10 to 100 µM

More lines, now with the values ahead:

IC50	SMILES
0.1 to 1 µM	Cn1nc(Nc2cnccc2C(=O)O)cc1-c1ccccc1 [Compound 5]
0.1 to 1 µM	Cc1nn(C2CCN(C3CN(C)C3)CC2)cc1Nc1cnccc1C(=O)O [Compound 91, 3-(3-methyl-1-(1-(1-methylazetidin-3-yl)piperidin-4-yl)-1H-pyrazol-4-ylamino)isonicotinic acid]
0.1 to 1 µM	O=C(O)c1ccncc1Nc1nn(-c2ccccc2)cc1-c1ccncc1 [Compound 88, 3-((1-phenyl-4-(pyridin-4-yl)-1H-pyrazol-3-yl)amino) isonicotinic acid]
0.1 to 1 µM	Cc1nn(C2CCN(C3CCC3)CC2)cc1Nc1cnccc1C(=O)O [Compound 94, 3-(1-(1-cyclobutylpiperidin-4-yl)-3-methyl-1H-pyrazol-4-ylamino)isonicotinic acid]
1 to 10 µM	CCc1c(Nc2cnccc2C(=O)O)cnn1-c1ccccc1 [Compound 81, 3-((5-ethyl-1-phenyl-1H-pyrazol-4-yl)amino)isonicotinic acid]
0.001 to 0.1 µM	Cc1nn([C@H]2CC[C@@H](N)CC2)cc1Nc1cnccc1C(=O)O [Compound 80, 3-((1-((cis)-4-aminocyclohexyl)-3-methyl-1H-pyrazol-4-yl)amino)isonicotinic acid]
0.001 to 0.1 µM	Cc1ccc(-n2cc(Nc3cnccc3C(=O)O)c(C)n2)cc1 [Compound 82]
0.1 to 1 µM	Cc1nn(C2CCN(CC3CC3)CC2)cc1Nc1cnccc1C(=O)O [Compound 89, 3-(1-(1-(cyclopropylmethyl)piperidin-4-yl)-3-methyl-1H-pyrazol-4-ylamino)isonicotinic acid]

same assay, conditions: C-terminal FLAG-tagged KDM5A 1-1090; numeric bound; read-out: 5A IC50

IC50	SMILES
> 100 µM	Cn1ncc(-c2cccnc2)c1Nc1cnccc1C(=O)O [Compound 4]
